Source: patent US20090317491A1, “MANUFACTURING METHOD OF MEDICAL STERILIZED ISOTONIC SOLUTION HAVING LOW-CONCENTRATEDLY CONTROLLED FREE CHLORINE INCLUDING HYPOCHLOROUS ACID THEREIN” (priority 2007, published 2009)

Experiments:
[1] = mucosa of a nose and eyes; cited from earlier work
[2] = system: Staphylococcus saprophyticus; settings: normal temperature; cited from earlier work
[3] = system: Staphylococcus epidermidis; settings: normal temperature; cited from earlier work
Micrococcus luteus = settings: normal temperature; cited from earlier work
[4] = system: Vancomycin-resistent Enterococcus faecium; settings: normal temperature; cited from earlier work
Haemophilus influenzae = settings: normal temperature; cited from earlier work
[5] = HOCl versus OCl−; cited from earlier work
Proteus mirabilis = settings: normal temperature; cited from earlier work
[6] = system: Corynebacterium amycolatum; settings: normal temperature; cited from earlier work
Klebsiella pneumoniae = settings: normal temperature; cited from earlier work
Serratia marcescens = settings: normal temperature; cited from earlier work
Sterptococcus pyogenes = settings: normal temperature; cited from earlier work
[7] = system: Methicillin-resistent Staphylococcus aureus; settings: normal temperature; cited from earlier work
Escherichia coli = settings: normal temperature; cited from earlier work
[8] = inside of a human body / mammal bodies; cited from earlier work
[9] = system: Staphylococcus haemolyticus; settings: normal temperature; cited from earlier work
[10] = Half-life time of HOCl in water / outside the body (FIG. 16); format: physicochemical; settings: water (medical sterilized normal saline), neutral or subacid, outside of human body
Experimental: Especially, HOCl generated in the medical sterilized normal saline is very unstable in neutral or subacid area, and thus is tend to be reduced to a half only for 3 minutes. Therefore, the free chlorines should be supplied to patients within 3 minutes from manufacturing the medical normal saline. […] Therefore, prompt supply into the body right after manufacturing the medical normal saline can obtain enough time to sterilize or kill germs, fungi, bacteria, the causes of diseases.
FIG. 16 is a graph of the amount of the free chlorine in accordance with the 20 seconds operation time.

Staphylococcus hominis = settings: normal temperature; cited from earlier work
Staphylococcus aureus = settings: normal temperature; cited from earlier work
Pseudomonas aeruginosa = settings: normal temperature; cited from earlier work
Enterobacter aerogenes = settings: normal temperature; cited from earlier work

## OCl [HOCl, Hypochlorous acid]
[1]
  concentration of HOCl that causes trouble on sensitive parts of human body and stench of the solution: over 6 ppm
[2]
  MBC: 0.35 ppm
[3]
  MBC: 0.338 ppm
Micrococcus luteus
  MBC: 2.77 ppm
[4]
  MBC: 2.73 ppm
Haemophilus influenzae
  MBC: 0.338 ppm
[5]
  sterilizing efficacy relative to OCl−: 80 times
Proteus mirabilis
  MBC: 0.340 ppm
[6]
  MBC: 0.169 ppm
Klebsiella pneumoniae
  MBC: 1.7 ppm
Serratia marcescens
  MBC: 0.169 ppm
Sterptococcus pyogenes
  MBC: 0.169 ppm
[7]
  MBC: 0.682 ppm
Escherichia coli
  MBC: 0.7 ppm
[8]
  half-life time: 44 h
[9]
  MBC: 0.338 ppm
[10]
  half-life: 3 min
Staphylococcus hominis
  MBC: 1.4 ppm
Staphylococcus aureus
  MBC: 0.173 ppm
Pseudomonas aeruginosa
  MBC: 0.35 ppm
Enterobacter aerogenes
  MBC: 0.676 ppm
